Measurements reported in patent publication US20200148803A1, “POLYMERIZABLE MULTIFUNCTIONAL ANTIMICROBIAL QUATERNARY AMMONIUM MONOMERS, METHODS OF SYNTHESIS, AND USES THEREOF” (ADA Foundation, priority 2018, published 2020).

How the values were obtained:
[1] = Sessile drop water contact angle (CA) on resin pellets; format: physicochemical
Method: (§1) Experimental resin (UPE) was formulated from the commercially available monomers urethane dimethacrylate (UDMA, 50.91% w/w), polyethylene glycol extended urethane dimethacrylate (PEG-U, 18.18% w/w), and ethyl 2-(hydroxymethyl)acrylate (EHMA, 30.91% w/w). A conventional visible light initiator system comprised of camphorquinone (0.2% w/w) and ethyl-4-N,N-dimethylamino benzoate (4EDMAB, 0.8% w/w) was utilized. […] Copolymer specimens (beams) were prepared by depositing UPE (UPE resin control) and AM-UPE resins into glass molds (2 mm×2 mm×25 mm) and photopolymerizing them with a dental curing light (Triad 2000, Dentsply, Charlotte, N.C., USA) for 2 minutes from two sides. Copolymer specimens (pellets) were prepared by depositing UPE and AM-UPE resins into a stainless-steel mold (1 mm×16 mm), sandwiched between two sheets of Mylar film and two glass slides and photopolymerized in the same manner as the beam samples. Degree of vinyl conversion (DVC) of UPE and AM-UPE resins was determined utilizing beam samples by collecting the near infra-red (NIR) spectra (Nexus 670, ThermoFisher, Madison, Wis., USA) before and 24 h after polymerization and calculating the reduction in absorption band at 6165 cm^−1 corresponding to the vinyl (C═C—H) overtone signal. By maintaining a constant specimen thickness, a need for an invariant internal standard was eliminated. The DVC was calculated as: […]
(§2) where Area(polymer) and Area(monomer) correspond to the areas under 6165 cm^−1 peaks after and before the polymerization, respectively. After DVC analysis, flexural strength (FS) and elastic modulus (E) of beam specimen were determined employing the Universal Testing Machine (Instron 5500R, Instron Corp., Canton, Mass., USA). The load was applied (at cross-head speed of 1 mm/min) to the center of a specimen positioned on a test device with supports 20 mm apart. The FS and E of the specimens (three replicates/experimental group) was calculated as instructed in the ISO4049:2009 document. Changes in hydrophilicity/hydrophobicity of UPE resins due to the introduction of AM monomers were assessed on pellet specimen by sessile drop contact angle (CA) measurements (drop shape analyzer DSA100, Krüss GmbH, Hamburg, Germany). Following the deposition of 4 μL water droplets on the resin pellets, the pellets were imaged after 1 min resting time with a camera at the points of intersection (three-phase contact points) between the drop contour and the projection of the surface (baseline). The CA water values were calculated employing the Krüss Advance software. At least four repetitive measurements were performed in each group. Analysis of variance (ANOVA) and Newman-Keuls multiple paired comparisons (at 95% confidence level) were used to analyze the experimental data as a function of resin composition and establish a statistical significance of differences between the experimental groups (WINKS 7.0.9, TexaSoft, Cedar Hills, Tex., USA).

[2] = Degree of vinyl conversion (DVC) by near infra-red spectra of copolymer beams; format: physicochemical
Method: as §1, §2

CCL1 cells = assay: Cellular metabolic activity (CellTiter AQueous One Solution Reagent), CCL1 cells; format: cell-based; conditions: for effect of monomer concentration on CCL1 metabolic activity: two-fold serial dilutions, 24 h and 72 h
[3] = system: human gingival fibroblasts (HGF); assay: Cellular metabolic activity (CellTiter AQueous One Solution Reagent), HGF cells; format: cell-based; conditions: for effect on metabolic activity of HGF cells: two-fold serial dilutions, 24 h and 72 h
Method: (§3) Immortalized human gingival fibroblasts (HGF) were purchased from Applied Biological Materials, Inc. (Richmond, British Columbia, Canada). […] For experiments, cells were obtained from a subconfluent stock culture.
(§4) Direct contact cytotoxicity testing was conducted as previously described^7, 8. Briefly, cells were exposed to two-fold serial dilutions of AMadh series monomers or AMsil series monomers to approximate the maximum possible exposure, (Table 9). Table 9 illustrates biocompatibility testing using maximum possible monomer exposure (mmol/L), assuming 7% mass fraction in the restorative with a maximum of 2% leaching. To account for multiplicity and variable size of restorations, a two- and four-fold greater dilution was also included in the testing. After 24 and 72 h, cells were assessed for cell viability using the LIVE/DEAD® Viability/Cytotoxicity kit (Life Technologies, Corp., Grand Island, N.Y.). Cellular metabolic activity was subsequently assessed using the CellTiter® AQueous One Solution Reagent (Promega, Corp., Madison, Wis.). Negative controls were without the novel monomer and/or cells. Mean+standard error was obtained from five independent replicates tested in triplicate.

[4] = system: human gingival fibroblasts (HGF); assay: Direct contact cytotoxicity, LIVE/DEAD viability, HGF cells; format: cell-based; conditions: for effect of exposure time on HGF live cells, difference of means: 24 h vs 72 h, regardless of concentration; for effect of monomer concentration on HGF cell viability: two-fold serial dilutions, 24 h and 72 h
Method: as §3, §4

[5] = system: mouse subcutaneous connective tissue fibroblasts (NCTC clone 929, CCL1); assay: Direct contact cytotoxicity, LIVE/DEAD viability, CCL1 cells; format: cell-based

## C=C(C)C(=O)OCC[N+](C)(C)CCCCCC(=O)O.[Br-] [AMadh1, 5-carboxy-N-(2-(methacryloyloxy)ethyl)-N,N-dimethylpentan-1-aminium bromide]
[1]; 10 and 20 mass percent in UPE resin
  effect on hydrophobic-hydrophilic properties of the copolymer: did not alter the hydrophobic-hydrophilic properties
[2]; 10 mass percent in UPE resin
  increase of DVC relative to UPE resin control: 2%
[2]; 20 mass percent in UPE resin
  increase of DVC relative to UPE resin control: 3%
CCL1 cells
  effect of monomer concentration on CCL1 metabolic activity: A main effect
[3]
  effect on metabolic activity of HGF cells: Neither AMadh1 concentration nor time of exposure significantly affected the metabolic activity
[4]; 0.08 mmol/L, 24 h
  dead HGF cells: 102.1 ± 0.9 % control
  live HGF cells: 92.8 ± 11.3 % control
[4]; 0.08 mmol/L, 72 h
  dead HGF cells: 99.5 ± 8.0 % control
  live HGF cells: 121.6 ± 12.6 % control
[4]; 0.17 mmol/L, 24 h
  dead HGF cells: 99.1 ± 1.7 % control
  live HGF cells: 77.3 ± 15.9 % control
[4]; 0.17 mmol/L, 72 h
  dead HGF cells: 98.8 ± 9.1 % control
  live HGF cells: 95.1 ± 14.4 % control
[4]; 0.33 mmol/L, 24 h
  dead HGF cells: 103.5 ± 3.7 % control
  live HGF cells: 110.4 ± 9.7 % control
[4]; 0.33 mmol/L, 72 h
  dead HGF cells: 102.0 ± 12.8 % control
  live HGF cells: 116.8 ± 12.3 % control
[4]; 0.66 mmol/L, 24 h
  dead HGF cells: 101.5 ± 2.5 % control
  live HGF cells: 107.4 ± 4.7 % control
[4]; 0.66 mmol/L, 72 h
  dead HGF cells: 92.1 ± 8.7 % control
  live HGF cells: 133.0 ± 8.4 % control
[4]; 1.33 mmol/L, 24 h
  dead HGF cells: 110.9 ± 7.1 % control
  live HGF cells: 121.8 ± 8.2 % control
[4]; 1.33 mmol/L, 72 h
  dead HGF cells: 89.5 ± 8.9 % control
  live HGF cells: 107.6 ± 6.9 % control
[4]; 2.65 mmol/L, 24 h
  dead HGF cells: 100.4 ± 1.0 % control
  live HGF cells: 111.7 ± 10.0 % control
[4]; 2.65 mmol/L, 72 h
  dead HGF cells: 104.0 ± 17.1 % control
  live HGF cells: 107.8 ± 4.0 % control
[4]; 5.3 mmol/L, 24 h
  dead HGF cells: 102.7 ± 2.6 % control
  live HGF cells: 108.8 ± 14.8 % control
[4]; 5.3 mmol/L, 72 h
  dead HGF cells: 88.9 ± 6.8 % control
  live HGF cells: 130.5 ± 9.2 % control
[4]; 10.6 mmol/L, 24 h
  dead HGF cells: 100.9 ± 1.7 % control
  live HGF cells: 92.4 ± 10.8 % control
[4]; 10.6 mmol/L, 72 h
  dead HGF cells: 90.3 ± 11.6 % control
  live HGF cells: 103.7 ± 7.8 % control
[4]
  effect of exposure time on HGF live cells, difference of means: 10.4%
  effect of monomer concentration on HGF cell viability: monomer concentration affected
[4]; ≤10.6 mmol/L, 24 h or 72 h, % control
  number of live HGF cells in monomer-treated groups, median of least square means: 111.7%
[5]; 10.6 mmol/L, 72 h exposure
  decrease of mean number of live CCL1 cells compared to all lower concentrations: ≤ 2.5 fold
[5]; 24 h exposure, ≤10.6 mmol/L
  effect of monomer concentration on CCL1 cell viability: insignificant
[5]; two-fold serial dilutions, 24 h and 72 h
  effect of monomer concentration on CCL1 cell viability: exerted a main effect

## C=C(C)C(=O)OCC[N+](C)(C)CCCCCCCCCCC(=O)O.[Br-] [AMadh2, 10-carboxy-N-(2-(methacryloyloxy)ethyl)-N,N-dimethyldecan-1-aminium bromide]
[1]; 10 mass percent in UPE resin
  effect on hydrophobic-hydrophilic properties of the copolymer: a shift towards the lower CA values
  reduction of water CA relative to UPE resin control: 18 °
[1]; 20 mass percent in UPE resin
  effect on hydrophobic-hydrophilic properties of the copolymer: did not alter the hydrophobic-hydrophilic properties
CCL1 cells; 24 h, 8.8 mm/L
  CCL1 cell metabolic activity: reduced
CCL1 cells; 72 h
  CCL1 cell metabolic activity: markedly reduced
CCL1 cells
  effect of monomer concentration on CCL1 metabolic activity: exerted an effect
[3]; 24 h vs 72 h
  time of exposure decreased HGF metabolic activity, difference of means: 19.01
[3]
  effect on metabolic activity of HGF cells: not affected by the level of AMadh2
[4]
  effect of exposure time on HGF live cells, difference of means: ~16%
  effect of monomer concentration on HGF cell viability: no significant effect
[5]; 8.8 mmol/L, 72 h exposure
  percentage of live CCL1 cells, fold lower compared to concentrations ≤4.4 mmol/L: at least 10 fold
[5]; 8.8 mmol/L, independent of time
  least squares mean of live CCL1 cells, fold lower than at lower concentrations: approx. 2 fold
[5]; ≤2.2 mmol/L (24 h) and ≤0.28 mmol/L (72 h)
  percent live CCL1 cells compared to control group (no monomer): increased
[5]; ≤8.8 mmol/L
  effect of concentration on the number of dead CCL1 cells: not statistically different
